Source: US20250312462A1, “PAK1 DEGRADERS AND METHODS OF USE THEREOF” (INSTITUTE FOR CANCER RESEARCH D/B/A THE RESEARCH INSTITUTE …, priority 2022, published 2025)
Like-named read-outs stand apart in the source and are kept apart here.

Key:
[1] = molecular target: ERK3 (Homo sapiens, UniProt Q16659); assay: KINOMEscan; conditions: read-out: Percent Control
Description: (§4) The kinase engagement assay (KINOMEscan®) was performed by DiscoverX assessing binding abilities toward a set of kinases.

[2] = test system: OMM1 cells; assay: Cell proliferation, MTT assay; format: cell-based; conditions: OMM1 cells (PAK2-dependent)
Description: (§1) Cell proliferation was assessed by MTT assay.
(§2) Cell viability was measured by MTT assay and the half maximal inhibitory concentration (IC50) was calculated using GraphPad Prism. Triplicates were performed for each sample and medium alone was used as a blank.
(§3) The anti-proliferative effects of PAK1 degradation and inhibition were evaluated.

[3] = test system: Hey A8 cells; assay: Cell proliferation, MTT assay; format: cell-based
Description: as §1, §2, §3

[4] = test system: MCF7 cells; assay: Cell proliferation, MTT assay; format: cell-based; conditions: Homo sapiens, MCF7, MCF7 cells, read-out: EC50, anti-proliferative
Description: as §1, §2, §3

[5] = molecular target: CDKL1 (Homo sapiens, UniProt Q00532); assay: KINOMEscan; conditions: read-out: Percent Control
Description: as §4

[6] = molecular target: EGFR(E746-A750del) (Homo sapiens, UniProt P00533, DEL746-750); assay: KINOMEscan; conditions: read-out: Percent Control
Description: as §4

[7] = molecular target: SRPK3 (Homo sapiens, UniProt Q9UPE1); assay: KINOMEscan; conditions: read-out: Percent Control
Description: as §4

[8] = molecular target: EPHA7 (Homo sapiens, UniProt Q15375); assay: KINOMEscan; conditions: read-out: Percent Control
Description: as §4

[9] = molecular target: TNK2 (Homo sapiens, UniProt Q07912); assay: KINOMEscan; conditions: read-out: Percent Control
Description: as §4

[10] = molecular target: ERK2 (Homo sapiens, UniProt P28482); assay: KINOMEscan; conditions: read-out: Percent Control
Description: as §4

[11] = molecular target: JNK3 (Homo sapiens, UniProt P53779); assay: KINOMEscan; conditions: read-out: Percent Control
Description: as §4

[12] = molecular target: PIK3CB (Homo sapiens, UniProt P42338); assay: KINOMEscan; conditions: read-out: Percent Control
Description: as §4

[13] = molecular target: ABL1(F317L)-phosphorylated (Homo sapiens, UniProt P00519, F317L); assay: KINOMEscan; conditions: read-out: Percent Control
Description: as §4

[14] = molecular target: CDKL3 (Homo sapiens, UniProt Q8IVW4); assay: KINOMEscan; conditions: read-out: Percent Control
Description: as §4

[15] = molecular target: PKN2 (Homo sapiens, UniProt Q16513); assay: KINOMEscan; conditions: read-out: Percent Control
Description: as §4

[16] = molecular target: DRAK1 (Homo sapiens, UniProt Q9UEE5); assay: KINOMEscan; conditions: read-out: Percent Control
Description: as §4

[17] = molecular target: ERN1 (Homo sapiens, UniProt O75460); assay: KINOMEscan; conditions: read-out: Percent Control
Description: as §4

[18] = molecular target: PRKG1 (Homo sapiens, UniProt Q13976); assay: KINOMEscan; conditions: read-out: Percent Control
Description: as §4

[19] = molecular target: JAK2(JH1domain-catalytic) (Homo sapiens, UniProt O60674); assay: KINOMEscan; conditions: read-out: Percent Control
JAK2(JH1domain-catalytic), sequence (O60674 849-1124 limits assumed): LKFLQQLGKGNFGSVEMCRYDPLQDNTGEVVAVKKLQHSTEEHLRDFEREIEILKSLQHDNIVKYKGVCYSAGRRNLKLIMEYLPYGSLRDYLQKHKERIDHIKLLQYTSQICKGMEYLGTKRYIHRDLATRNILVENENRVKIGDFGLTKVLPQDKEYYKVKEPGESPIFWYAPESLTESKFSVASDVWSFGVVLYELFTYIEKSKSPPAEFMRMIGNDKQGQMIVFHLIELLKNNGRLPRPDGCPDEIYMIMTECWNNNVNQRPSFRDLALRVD
Description: as §4

[20] = molecular target: MYLK4 (Homo sapiens, UniProt Q86YV6); assay: KINOMEscan; conditions: read-out: Percent Control
MYLK4, sequence (Q86YV6 whole entry): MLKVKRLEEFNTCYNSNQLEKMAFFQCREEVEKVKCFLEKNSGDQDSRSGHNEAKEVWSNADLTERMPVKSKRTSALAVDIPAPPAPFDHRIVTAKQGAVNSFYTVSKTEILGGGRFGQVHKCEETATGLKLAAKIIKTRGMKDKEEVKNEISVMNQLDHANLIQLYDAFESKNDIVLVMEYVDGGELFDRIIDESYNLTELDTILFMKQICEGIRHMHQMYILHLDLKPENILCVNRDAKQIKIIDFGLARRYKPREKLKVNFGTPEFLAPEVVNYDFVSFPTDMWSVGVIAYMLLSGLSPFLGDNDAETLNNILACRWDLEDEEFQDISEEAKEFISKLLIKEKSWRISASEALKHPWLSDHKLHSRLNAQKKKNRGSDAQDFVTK
Description: as §4

[21] = molecular target: EPHA2 (Homo sapiens, UniProt P29317); assay: KINOMEscan; conditions: read-out: Percent Control
Description: as §4

[22] = molecular target: PKAC-beta (Homo sapiens, UniProt P22694); assay: KINOMEscan; conditions: read-out: Percent Control
Description: as §4

[23] = molecular target: p38-delta (Homo sapiens, UniProt O15264); assay: KINOMEscan; conditions: read-out: Percent Control
Description: as §4

[24] = molecular target: PHKG2 (Homo sapiens, UniProt P15735); assay: KINOMEscan; conditions: read-out: Percent Control
PHKG2, sequence (P15735 whole entry): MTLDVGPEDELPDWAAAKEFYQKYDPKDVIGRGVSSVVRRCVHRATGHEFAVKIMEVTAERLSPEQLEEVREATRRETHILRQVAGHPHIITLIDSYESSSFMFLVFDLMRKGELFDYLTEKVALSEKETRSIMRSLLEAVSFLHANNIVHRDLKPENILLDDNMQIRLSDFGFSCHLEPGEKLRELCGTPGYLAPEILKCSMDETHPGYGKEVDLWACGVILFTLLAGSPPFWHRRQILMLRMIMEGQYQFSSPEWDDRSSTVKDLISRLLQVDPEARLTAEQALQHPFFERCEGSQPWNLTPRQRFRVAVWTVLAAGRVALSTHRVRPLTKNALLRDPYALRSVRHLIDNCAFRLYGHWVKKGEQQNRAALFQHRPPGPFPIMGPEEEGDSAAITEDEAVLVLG
Description: as §4

[25] = molecular target: PLK2 (Homo sapiens, UniProt Q9NYY3); assay: KINOMEscan; conditions: read-out: Percent Control
Description: as §4

[26] = molecular target: CDC2L2 (Homo sapiens, UniProt Q9UQ88); assay: KINOMEscan; conditions: read-out: Percent Control
Description: as §4

[27] = molecular target: BLK (Homo sapiens, UniProt P51451); assay: KINOMEscan; conditions: read-out: Percent Control
Description: as §4

[28] = molecular target: RIOK3 (Homo sapiens, UniProt O14730); assay: KINOMEscan; conditions: read-out: Percent Control
Description: as §4

[29] = molecular target: EPHA6 (Homo sapiens, UniProt Q9UF33); assay: KINOMEscan; conditions: read-out: Percent Control
EPHA6, sequence (Q9UF33 23-1036): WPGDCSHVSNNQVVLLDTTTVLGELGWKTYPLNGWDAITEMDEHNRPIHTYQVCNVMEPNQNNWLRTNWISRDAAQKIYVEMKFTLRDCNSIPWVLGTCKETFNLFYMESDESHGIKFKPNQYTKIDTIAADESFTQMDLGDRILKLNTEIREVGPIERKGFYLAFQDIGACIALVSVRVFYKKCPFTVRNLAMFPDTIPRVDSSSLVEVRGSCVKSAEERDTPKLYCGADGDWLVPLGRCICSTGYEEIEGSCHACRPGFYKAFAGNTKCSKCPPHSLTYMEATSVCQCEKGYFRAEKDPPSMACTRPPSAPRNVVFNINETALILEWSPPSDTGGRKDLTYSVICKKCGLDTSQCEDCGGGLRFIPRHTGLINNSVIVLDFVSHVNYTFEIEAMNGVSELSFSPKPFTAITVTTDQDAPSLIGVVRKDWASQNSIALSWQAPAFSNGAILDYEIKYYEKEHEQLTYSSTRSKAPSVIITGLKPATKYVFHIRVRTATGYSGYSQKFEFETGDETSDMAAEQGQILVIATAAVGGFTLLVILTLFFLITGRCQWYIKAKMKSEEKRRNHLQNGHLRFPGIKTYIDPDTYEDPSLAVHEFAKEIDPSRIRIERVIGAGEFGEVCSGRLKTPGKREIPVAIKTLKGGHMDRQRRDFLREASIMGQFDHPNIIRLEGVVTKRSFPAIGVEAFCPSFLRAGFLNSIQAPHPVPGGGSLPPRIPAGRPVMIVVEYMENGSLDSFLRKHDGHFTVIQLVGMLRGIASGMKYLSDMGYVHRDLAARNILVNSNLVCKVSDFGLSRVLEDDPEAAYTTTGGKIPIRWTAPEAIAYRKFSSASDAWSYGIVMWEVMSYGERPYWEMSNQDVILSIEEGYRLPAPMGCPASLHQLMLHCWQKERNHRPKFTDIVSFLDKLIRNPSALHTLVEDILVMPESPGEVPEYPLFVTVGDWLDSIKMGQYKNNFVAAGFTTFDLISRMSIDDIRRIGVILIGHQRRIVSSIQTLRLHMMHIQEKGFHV
Description: as §4

[30] = molecular target: CHEK1 (Homo sapiens, UniProt O14757); assay: KINOMEscan; conditions: read-out: Percent Control
Description: as §4

[31] = molecular target: MAP3K3 (Homo sapiens, UniProt Q99759); assay: KINOMEscan; conditions: read-out: Percent Control
MAP3K3, sequence (Q99759 whole entry): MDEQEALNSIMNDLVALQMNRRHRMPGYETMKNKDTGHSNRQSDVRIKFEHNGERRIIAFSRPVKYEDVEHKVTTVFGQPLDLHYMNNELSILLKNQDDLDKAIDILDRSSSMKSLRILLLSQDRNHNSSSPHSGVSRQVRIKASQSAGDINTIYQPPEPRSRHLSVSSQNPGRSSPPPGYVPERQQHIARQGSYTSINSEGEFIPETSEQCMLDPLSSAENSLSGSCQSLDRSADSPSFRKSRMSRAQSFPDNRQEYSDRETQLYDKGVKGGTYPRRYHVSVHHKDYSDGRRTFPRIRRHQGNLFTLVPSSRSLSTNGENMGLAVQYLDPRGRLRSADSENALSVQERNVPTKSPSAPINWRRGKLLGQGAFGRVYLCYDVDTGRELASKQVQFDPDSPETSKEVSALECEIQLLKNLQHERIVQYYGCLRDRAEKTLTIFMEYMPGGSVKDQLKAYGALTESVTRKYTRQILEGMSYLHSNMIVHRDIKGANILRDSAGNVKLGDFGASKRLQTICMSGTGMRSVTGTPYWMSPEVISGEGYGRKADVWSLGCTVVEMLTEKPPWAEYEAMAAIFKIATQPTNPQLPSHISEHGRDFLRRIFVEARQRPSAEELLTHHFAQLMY
Description: as §4

[32] = molecular target: NEK9 (Homo sapiens, UniProt Q8TD19); assay: KINOMEscan; conditions: read-out: Percent Control
NEK9, sequence (Q8TD19 whole entry): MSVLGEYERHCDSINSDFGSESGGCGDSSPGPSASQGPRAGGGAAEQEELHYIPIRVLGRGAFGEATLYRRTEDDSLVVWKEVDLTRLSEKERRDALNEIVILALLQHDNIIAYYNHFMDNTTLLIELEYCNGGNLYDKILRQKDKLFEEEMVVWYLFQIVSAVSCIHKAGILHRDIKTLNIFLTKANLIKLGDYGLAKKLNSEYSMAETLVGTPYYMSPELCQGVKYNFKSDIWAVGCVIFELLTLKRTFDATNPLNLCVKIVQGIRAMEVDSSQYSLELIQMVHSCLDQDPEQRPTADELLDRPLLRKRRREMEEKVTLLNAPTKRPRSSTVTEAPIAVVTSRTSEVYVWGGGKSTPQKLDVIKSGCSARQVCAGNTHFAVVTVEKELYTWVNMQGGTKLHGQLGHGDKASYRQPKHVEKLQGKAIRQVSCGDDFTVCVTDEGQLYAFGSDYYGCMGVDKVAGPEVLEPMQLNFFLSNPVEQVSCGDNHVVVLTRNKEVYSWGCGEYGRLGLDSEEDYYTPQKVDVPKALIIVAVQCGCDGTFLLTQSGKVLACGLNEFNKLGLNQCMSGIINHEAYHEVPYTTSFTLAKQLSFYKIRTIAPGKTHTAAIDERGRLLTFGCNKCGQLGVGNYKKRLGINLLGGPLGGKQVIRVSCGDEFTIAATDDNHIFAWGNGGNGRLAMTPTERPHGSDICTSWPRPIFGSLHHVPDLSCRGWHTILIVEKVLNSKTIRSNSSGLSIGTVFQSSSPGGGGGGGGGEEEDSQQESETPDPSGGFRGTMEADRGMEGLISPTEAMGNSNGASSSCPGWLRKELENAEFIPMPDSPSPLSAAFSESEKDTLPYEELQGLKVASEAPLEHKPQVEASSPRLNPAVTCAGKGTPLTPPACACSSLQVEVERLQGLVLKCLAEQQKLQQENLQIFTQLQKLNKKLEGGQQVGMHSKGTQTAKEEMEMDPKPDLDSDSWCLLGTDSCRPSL
Description: as §4

[33] = molecular target: TNK1 (Homo sapiens, UniProt Q13470); assay: KINOMEscan; conditions: read-out: Percent Control
TNK1, sequence (Q13470 whole entry): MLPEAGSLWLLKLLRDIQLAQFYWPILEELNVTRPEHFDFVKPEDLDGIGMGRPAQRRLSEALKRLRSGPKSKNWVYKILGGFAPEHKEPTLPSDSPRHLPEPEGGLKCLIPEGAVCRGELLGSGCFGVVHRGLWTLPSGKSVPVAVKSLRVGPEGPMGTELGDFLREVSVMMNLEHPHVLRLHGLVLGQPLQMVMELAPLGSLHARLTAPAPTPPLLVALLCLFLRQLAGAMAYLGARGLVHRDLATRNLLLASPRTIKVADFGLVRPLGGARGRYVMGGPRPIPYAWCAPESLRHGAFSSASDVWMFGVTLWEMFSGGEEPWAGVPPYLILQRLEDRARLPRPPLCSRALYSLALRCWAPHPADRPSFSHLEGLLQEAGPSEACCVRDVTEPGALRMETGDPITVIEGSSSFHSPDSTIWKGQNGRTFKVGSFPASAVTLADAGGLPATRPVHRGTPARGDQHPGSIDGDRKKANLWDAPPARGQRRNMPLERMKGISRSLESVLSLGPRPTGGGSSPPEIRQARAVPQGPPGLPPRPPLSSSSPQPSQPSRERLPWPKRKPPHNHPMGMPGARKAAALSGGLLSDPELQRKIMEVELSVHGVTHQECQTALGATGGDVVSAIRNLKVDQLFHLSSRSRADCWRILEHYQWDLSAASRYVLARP
Description: as §4

[34] = molecular target: TYK2(JH2domain-pseudokinase) (Homo sapiens, UniProt P29597); assay: KINOMEscan; conditions: read-out: Percent Control
TYK2(JH2domain-pseudokinase), sequence (P29597 589-875 limits assumed): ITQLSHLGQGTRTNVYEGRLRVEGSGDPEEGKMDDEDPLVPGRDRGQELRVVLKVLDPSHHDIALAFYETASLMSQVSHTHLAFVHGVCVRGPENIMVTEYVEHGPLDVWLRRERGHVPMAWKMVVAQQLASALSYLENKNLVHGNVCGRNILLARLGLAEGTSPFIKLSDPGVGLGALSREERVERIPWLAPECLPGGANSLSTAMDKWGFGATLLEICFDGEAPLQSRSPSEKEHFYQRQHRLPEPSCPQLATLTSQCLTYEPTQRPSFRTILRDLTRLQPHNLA
Description: as §4

[35] = molecular target: PIM3 (Homo sapiens, UniProt Q86V86); assay: KINOMEscan; conditions: read-out: Percent Control
Description: as §4

[36] = molecular target: CDK9 (Homo sapiens, UniProt P50750); assay: KINOMEscan; conditions: read-out: Percent Control
CDK9, sequence (P50750 whole entry): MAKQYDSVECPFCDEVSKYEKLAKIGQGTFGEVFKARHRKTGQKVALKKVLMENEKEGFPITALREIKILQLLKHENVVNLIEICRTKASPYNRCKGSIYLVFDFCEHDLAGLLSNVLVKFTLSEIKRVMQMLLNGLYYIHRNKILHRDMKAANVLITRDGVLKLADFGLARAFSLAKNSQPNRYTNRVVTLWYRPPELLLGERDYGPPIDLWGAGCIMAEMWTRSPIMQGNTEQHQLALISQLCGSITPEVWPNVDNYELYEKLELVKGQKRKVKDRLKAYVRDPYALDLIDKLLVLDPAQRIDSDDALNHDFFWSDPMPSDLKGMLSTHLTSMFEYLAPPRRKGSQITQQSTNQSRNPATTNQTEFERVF
Description: as §4

In the case of `O=C1CCC(N2C(=O)c3cccc(NCCCCCCCCNC(=O)N4CC[C@H](NC5=Nc6cc(F)ccc6N(CC(F)F)c6ccc(Cl)cc65)C4)c3C2=O)C(=O)N1` (stereo partly drawn) [BJG-05-039, (3S)-3-((2-Chloro-5-(2,2-difluoroethyl)-8-fluoro-5H-dibenzo[b,e][1,4]diazepin-11-yl)amino)-N-(8-((2-(2,6-dioxopiperidin-3-yl)-1,3-dioxoisoindolin-4-yl)amino)octyl)pyrrolidine-1-carboxamide], the remaining binding at 10 µM [1] is reported as 64%, the “Effect on cell proliferation” value [2] is reported as “Neither BJG-05-039 or NVS-PAK1-1 significantly affected cell proliferation” and the EC50 ([2]; OMM-1, read-out: EC50, anti-proliferative) is reported as 20.8 µM. For the same compound, the “Effect on cell proliferation” value ([3]; HEY-A8 cells (PAK2-dependent)) was “Neither BJG-05-039 or NVS-PAK1-1 significantly affected cell proliferation”, the EC50 ([3]; Hey A8 cells (PAK2-dependent), read-out: EC50, anti-proliferative) was 36 µM and the EC50 ([4]; first statement of b311) was 0.003 µM. For the same compound, the EC50 ([4]; second listing of b311) was 0.086 µM, the remaining binding at 10 µM [5] was 99% and the remaining binding at 10 µM [6] was 100%. The remaining binding at 10 µM [7] was 93%, the remaining binding at 10 µM [8] was 90% and the remaining binding at 10 µM [9] was 92%. For the same compound, the remaining binding at 10 µM [10] was 85%, the remaining binding at 10 µM [11] was 88% and the remaining binding at 10 µM [12] was 100%. It also gave a remaining binding at 10 µM [13] of 100%, a remaining binding at 10 µM [14] of 98% and a remaining binding at 10 µM [15] of 65%. For the same compound, the remaining binding at 10 µM [16] was 59%, the remaining binding at 10 µM [17] was 93% and the remaining binding at 10 µM [18] was 57%. For the same compound, the remaining binding at 10 µM [19] was 99%, the remaining binding at 10 µM [20] was 100% and the remaining binding at 10 µM [21] was 82%. It also gave a remaining binding at 10 µM [22] of 62%, a remaining binding at 10 µM [23] of 92% and a remaining binding at 10 µM [24] of 40%. The remaining binding at 10 µM [25] was 100%, the remaining binding at 10 µM [26] was 84% and the remaining binding at 10 µM [27] was 73%. The remaining binding at 10 µM [28] was 84%, the remaining binding at 10 µM [29] was 94% and the remaining binding at 10 µM [30] was 57%. The remaining binding at 10 µM [31] was 100%, the remaining binding at 10 µM [32] was 82% and the remaining binding at 10 µM [33] was 83%. The remaining binding at 10 µM [34] was 97%, the remaining binding at 10 µM [35] was 78% and the remaining binding at 10 µM [36] was 53%.
